Assay results reported in US10011571B2, “Preparation method for aromatic heterocyclic compound used as selective JAK3 and/or JAK1 kinase inhibitor and application of aromatic heterocyclic compound” (SHENZHEN CHIPSCREEN BIOSCIENCES, LTD., priority 2014, dated 2018).

Key:
[1] = target: JAK1 (Homo sapiens (Human), UniProt P23458); assay: Eurofins IC50Profiler radiometric kinase assay, JAK1; assay type: biochemical; settings: 9 semilog concentrations
Description: (§1) A proportion of the compounds of the present invention are subjected to kinase profile screening (KinaseProfiler™)) and enzymatic inhibitory activity (IC50Profiler™)) assay by entrusting Eurofins company (http://www.eurofins.com). Besides the kinases in the JAK family, the kinases that have been screened for their activity also include most Group 3F and Group 4 kinases (ITK, BLK, TBK1, VEGFRs, ERBBs, etc.), and blood system related kinases (Zhang J. et al. 2009, Nat. Rev. Cancer., 9: 28-39). The concentration of the test compound for kinase profile screening is 1 μM, and a gradient of 9 semilog concentration gradients are used to determine IC50. Detection is carried out according to standard procedure of Eurofins Company. Briefly, according to the requirements of different kinase reactions, 0.2 μL test compound (50 μM, dissolved in dimethyl sulfoxide (DMSO)) is added to reaction buffer containing specific kinase (the buffer system containing 20 mM MOPS, 1 mM EDTA, 0.01% Brij-35, 5% Glycerol, 0.1% β-mercaptoethanol, 1 mg/mL BSA, or 50 mM TRIS, 0.1 mM EGTA, 0.1 mM Na3VO4, 0.1% β-mercaptoethanol, 1 mg/mL BSA, based on the type of kinase used). Subsequently, a kinase specific substrate at a final concentration of 50 μM (specific substrate used for specific kinase), 10 mM Mg Acetate and isotope-labeled γ-^33P ATP (radio-activity of about 500 cpm/pmol) are sequentially added to a total volume of 10 μL for the reaction system. After incubation at room temperature for 40 min, the reaction is terminated by adding 3% phosphoric acid solution. The mixture is then transferred to a filter-type low temperature spray dryer (P30 filtermat), and washed by 75 mM phosphoric acid solution for 3 times and by methanol once. After drying, radio-activity is detected. For specific procedure, see the standard procedure provided by Eurofins Company: http://www.eurofins.com/media/9724077/kinaseprofiler_assay_protocol_guide_eurofins_v64.pdf).

[2] = target: JAK3 (Homo sapiens (Human), UniProt P52333); assay: Eurofins IC50Profiler radiometric kinase assay, JAK3; assay type: biochemical; settings: 9 semilog concentrations
JAK3, sequence (P52333 whole entry, species assumed): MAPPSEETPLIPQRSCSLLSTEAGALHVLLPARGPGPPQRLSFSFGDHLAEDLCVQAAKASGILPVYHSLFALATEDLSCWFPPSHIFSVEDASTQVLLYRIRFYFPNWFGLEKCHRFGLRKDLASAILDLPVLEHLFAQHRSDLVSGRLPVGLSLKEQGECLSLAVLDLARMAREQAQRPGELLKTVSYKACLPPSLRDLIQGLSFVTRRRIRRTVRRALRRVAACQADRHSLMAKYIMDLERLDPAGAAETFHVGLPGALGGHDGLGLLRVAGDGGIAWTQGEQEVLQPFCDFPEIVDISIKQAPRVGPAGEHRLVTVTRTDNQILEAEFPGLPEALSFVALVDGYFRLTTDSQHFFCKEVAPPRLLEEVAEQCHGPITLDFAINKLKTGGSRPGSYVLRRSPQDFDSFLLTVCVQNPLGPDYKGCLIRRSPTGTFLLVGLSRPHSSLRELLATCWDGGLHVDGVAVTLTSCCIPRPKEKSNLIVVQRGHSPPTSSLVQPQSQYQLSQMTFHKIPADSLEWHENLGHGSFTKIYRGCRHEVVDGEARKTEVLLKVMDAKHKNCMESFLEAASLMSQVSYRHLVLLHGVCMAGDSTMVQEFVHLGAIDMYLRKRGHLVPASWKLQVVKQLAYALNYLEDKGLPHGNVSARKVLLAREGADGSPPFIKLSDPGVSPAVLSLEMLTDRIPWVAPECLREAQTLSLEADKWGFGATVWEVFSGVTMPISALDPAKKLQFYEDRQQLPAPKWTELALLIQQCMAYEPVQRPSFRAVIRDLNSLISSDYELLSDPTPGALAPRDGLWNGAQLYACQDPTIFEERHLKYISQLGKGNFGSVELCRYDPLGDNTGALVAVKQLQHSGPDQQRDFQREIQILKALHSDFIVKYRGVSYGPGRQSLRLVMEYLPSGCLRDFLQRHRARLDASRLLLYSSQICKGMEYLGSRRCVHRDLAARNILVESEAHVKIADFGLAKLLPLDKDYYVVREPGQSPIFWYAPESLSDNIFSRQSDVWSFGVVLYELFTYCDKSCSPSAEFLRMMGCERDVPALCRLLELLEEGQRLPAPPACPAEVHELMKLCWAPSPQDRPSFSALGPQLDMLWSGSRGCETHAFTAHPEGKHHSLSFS
Description: as §1

[3] = test system: EPO/JAK2/STAT5a (UT-7); assay: Intracellular activity assay, EPO induced STAT5 phosphorylation in UT-7/EPO; assay type: cell-based; settings: Homo sapiens, inhibition of STAT5 phosphorylation, EPO 10 ng/mL
Description: In this experiment, western blot (WB) and flow cytometry are used to evaluate the intracellular activities of the test compounds by comparing the relative levels of the signals of phosphorylated and non-phosphorylated STATs in 5 cell models, including U937, THP-1, CTLL-2, UT-7/EPO and activated human periphery blood cell (hPBC). The primary antibody and secondary antibody used in WB hybridization in this experiment are purchased from Cell Signaling Company (http://www.cellsignal.com). The fluorescence-labeled antibodies used in flow cytometry are purchased from eBiosciences Company (http://www.ebioscience.com).
UT-7/EPO is a cell line formed from the marrow of a patient suffering from […] after cultured with EPO induction, and it has obvious response to cytokine EPO. The signal for EPO is transmitted via the homodimer of JAK2 and induces the phosphorylation of downstream STAT5, while a JAK inhibitor suppresses the phosphorylation of STAT5 by suppressing the activity of JAK2. The intracellular inhibitory activity of the compounds on JAK2 can be evaluated by detecting the change of the phosphorylation level of STAT5.
(1) Treatment by the compound: the experiment is carried out in a 6-well plate. […]
(2) Cell fixation and fluorescence labeling: the cells are fixed using paraformaldehyde (30 min), and subsequently treated for membrane permeability in chilled methanol (15 min). […]
(3) Detection by flow cytometry: the detection is carried out using Guava® easyCyte flow cytometer according to the instruction. The median fluorescent intensity (MFI) of a sample is detected using an appropriate cell population. On such a basis, the relative signal intensities are calculated for the phosphorylated STATs treated by the compounds at different concentrations by reference to the signal of the negative (with no factor stimulation) and the positive control (with both factor stimulation and solvent control) in the experiment, so that the IC50 of the compound for the inhibitory activity on STATs phosphorylation can be evaluated.

[4] = target: Flt1 (Homo sapiens (Human), UniProt P17948); assay: Eurofins IC50Profiler radiometric kinase assay, Flt1; assay type: biochemical; settings: 9 semilog concentrations
Flt1, sequence (P17948 27-1338, species assumed): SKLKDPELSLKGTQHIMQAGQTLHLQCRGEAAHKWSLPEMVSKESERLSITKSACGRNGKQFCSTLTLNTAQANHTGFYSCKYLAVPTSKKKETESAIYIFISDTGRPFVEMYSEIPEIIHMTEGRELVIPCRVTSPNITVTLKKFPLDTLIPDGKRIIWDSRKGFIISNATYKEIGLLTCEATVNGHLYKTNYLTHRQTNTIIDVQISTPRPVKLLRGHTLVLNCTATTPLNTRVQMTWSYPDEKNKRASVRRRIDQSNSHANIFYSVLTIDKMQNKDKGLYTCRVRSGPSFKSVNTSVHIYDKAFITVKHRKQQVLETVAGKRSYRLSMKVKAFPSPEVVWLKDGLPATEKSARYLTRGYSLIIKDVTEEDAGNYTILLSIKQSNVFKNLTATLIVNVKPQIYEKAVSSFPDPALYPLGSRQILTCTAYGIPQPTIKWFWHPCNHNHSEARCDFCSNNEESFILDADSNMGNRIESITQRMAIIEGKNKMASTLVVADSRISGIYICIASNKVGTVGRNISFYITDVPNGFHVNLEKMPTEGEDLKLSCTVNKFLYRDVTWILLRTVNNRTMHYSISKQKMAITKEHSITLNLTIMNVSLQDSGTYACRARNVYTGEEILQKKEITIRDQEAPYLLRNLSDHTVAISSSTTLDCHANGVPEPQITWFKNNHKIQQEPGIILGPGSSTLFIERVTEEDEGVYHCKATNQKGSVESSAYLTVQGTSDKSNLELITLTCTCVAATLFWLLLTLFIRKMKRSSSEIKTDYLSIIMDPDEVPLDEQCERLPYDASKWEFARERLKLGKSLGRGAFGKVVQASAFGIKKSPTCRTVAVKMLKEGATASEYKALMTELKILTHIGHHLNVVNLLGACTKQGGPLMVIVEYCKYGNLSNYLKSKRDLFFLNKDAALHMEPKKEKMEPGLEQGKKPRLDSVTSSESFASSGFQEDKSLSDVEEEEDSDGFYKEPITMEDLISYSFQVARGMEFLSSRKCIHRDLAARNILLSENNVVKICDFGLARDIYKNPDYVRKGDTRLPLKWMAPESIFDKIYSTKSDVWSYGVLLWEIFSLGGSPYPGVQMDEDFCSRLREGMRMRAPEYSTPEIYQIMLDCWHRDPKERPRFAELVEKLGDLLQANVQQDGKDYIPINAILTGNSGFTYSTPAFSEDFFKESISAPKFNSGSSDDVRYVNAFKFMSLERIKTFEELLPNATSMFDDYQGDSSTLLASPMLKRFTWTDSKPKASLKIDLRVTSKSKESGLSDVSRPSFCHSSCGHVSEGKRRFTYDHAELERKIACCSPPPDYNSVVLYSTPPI
Description: as §1

[5] = target: BLK (Homo sapiens, UniProt P51451); assay: Eurofins IC50Profiler radiometric kinase assay, BLK; assay type: biochemical; settings: 9 semilog concentrations
BLK, sequence (P51451 2-505 limits assumed): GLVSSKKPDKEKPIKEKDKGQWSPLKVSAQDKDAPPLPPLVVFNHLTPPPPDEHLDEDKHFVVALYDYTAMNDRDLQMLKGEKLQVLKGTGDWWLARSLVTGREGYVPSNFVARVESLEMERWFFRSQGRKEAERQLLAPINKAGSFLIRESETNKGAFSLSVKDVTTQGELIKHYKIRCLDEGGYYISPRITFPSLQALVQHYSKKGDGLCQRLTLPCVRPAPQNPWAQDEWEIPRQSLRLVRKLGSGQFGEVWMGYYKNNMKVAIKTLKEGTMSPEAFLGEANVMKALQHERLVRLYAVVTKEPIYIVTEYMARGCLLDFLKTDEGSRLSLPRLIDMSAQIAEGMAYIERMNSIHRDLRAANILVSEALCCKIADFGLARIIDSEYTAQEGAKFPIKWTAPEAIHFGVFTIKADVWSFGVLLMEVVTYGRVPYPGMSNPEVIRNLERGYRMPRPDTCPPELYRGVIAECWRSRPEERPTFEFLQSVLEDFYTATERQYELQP
Description: as §1

JAK1, sequence (P23458 whole entry, species assumed): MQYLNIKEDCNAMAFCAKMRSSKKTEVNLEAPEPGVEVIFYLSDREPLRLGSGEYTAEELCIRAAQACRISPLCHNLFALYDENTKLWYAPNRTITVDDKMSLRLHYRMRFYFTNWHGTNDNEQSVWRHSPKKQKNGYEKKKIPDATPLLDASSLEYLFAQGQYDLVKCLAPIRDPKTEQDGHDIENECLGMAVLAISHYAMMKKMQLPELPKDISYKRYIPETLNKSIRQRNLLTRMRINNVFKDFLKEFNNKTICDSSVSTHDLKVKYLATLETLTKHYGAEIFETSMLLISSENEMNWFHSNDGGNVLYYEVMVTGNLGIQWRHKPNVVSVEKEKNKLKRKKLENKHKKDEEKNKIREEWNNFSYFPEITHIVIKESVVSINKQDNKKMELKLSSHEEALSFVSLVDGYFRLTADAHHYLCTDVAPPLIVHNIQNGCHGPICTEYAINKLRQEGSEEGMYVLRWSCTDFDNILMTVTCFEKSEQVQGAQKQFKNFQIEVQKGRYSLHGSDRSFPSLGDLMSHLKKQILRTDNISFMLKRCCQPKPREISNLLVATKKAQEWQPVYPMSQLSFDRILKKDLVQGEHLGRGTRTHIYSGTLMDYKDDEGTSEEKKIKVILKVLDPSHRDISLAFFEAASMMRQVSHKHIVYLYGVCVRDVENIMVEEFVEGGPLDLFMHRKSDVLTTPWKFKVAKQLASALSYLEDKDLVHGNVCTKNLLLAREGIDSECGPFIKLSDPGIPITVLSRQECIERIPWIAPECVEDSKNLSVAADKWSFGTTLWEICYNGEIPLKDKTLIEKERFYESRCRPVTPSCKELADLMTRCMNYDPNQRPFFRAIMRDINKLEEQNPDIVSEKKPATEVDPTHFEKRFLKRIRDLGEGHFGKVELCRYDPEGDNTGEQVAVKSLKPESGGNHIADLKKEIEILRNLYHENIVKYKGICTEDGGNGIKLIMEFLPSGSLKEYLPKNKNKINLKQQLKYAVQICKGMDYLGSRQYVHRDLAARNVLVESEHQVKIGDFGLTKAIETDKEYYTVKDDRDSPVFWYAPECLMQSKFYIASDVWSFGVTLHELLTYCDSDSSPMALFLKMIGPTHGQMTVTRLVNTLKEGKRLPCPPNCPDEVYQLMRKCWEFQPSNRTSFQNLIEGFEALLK

Row | SMILES | IC50 [1] [nM] | IC50 [2] [nM] | IC50 [3] [nM] | IC50 [4] [nM] | IC50 [5] [nM]
1 | C=CC(=O)N(C)c1cc(Nc2ncc(Cl)c(NCCCNC(=O)c3ccc(F)cc3)n2)ccc1F [Example 23, N-(3-(5-chloro-2-(4-fluoro-3-(N-methylacrylamido)phenylamino)pyrimidinyl-4-amino)propyl)-4-fluorobenzamide] | 173 | 11 | > 3000 | 1230 | 855
2 | C=CC(=O)N(C)c1cc(Nc2ncc(Cl)c(NCCCNC(=O)c3ccc(C(F)(F)F)cc3)n2)ccc1F [Example 22, N-(3-(5-chloro-2-(4-fluoro-3-(N-methylacrylamido)phenylamino)pyrimidinyl-4-amino)propyl)-4-trifluoromethylbenzamide] | 279 | 21 | > 3000 | > 10000 | 1660
3 | C=CC(=O)N(C)c1cc(Nc2ncc(Cl)c(NCCCNC(=O)c3ccc(C#N)cc3)n2)ccc1F [Example 7, N-(3-(5-chloro-2-(4-fluoro-3-(N-methylacrylamido)phenylamino)pyrimidinyl-4-amino)propyl)-4-cyano-benzamide] | 105 | 11 | > 3000 | 698 | 286
